According to PubChem BioAssay (NCI):
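Where inhibition never reached the appropriate level, the endpoint shown equals the highest concentration tested. Otherwise, values were interpolated linearly from a five-concentration, 48-hour dose response in 96-well plates. TGI marks complete inhibition of growth.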

Columns and labels:
[1] = test system: HOP-18 NSCLC; test: NCI anticancer screen, dose series, 48 h
[2] = test system: RXF-631 renal; test: NCI anticancer screen, dose series, 48 h

SMILES	TGI [1]	TGI [2]
C/C=C/C=C/[C@H]1Cc2cc(O)cc(O)c2O1	> 100 µM	> 100 µM
CCN(CC)CC(C)(C)C(=O)/C=C/c1ccc(C)cc1	23.6 µM	55.7 µM
CCCCCCCCCCCCCCCCCC(=O)NCCCNCCCNC(=O)CCCCCCCCCCCCCCCCC	> 100 µM	> 100 µM
C[n+]1c2ccccc2c(NC(CCC(N)=O)C(=O)O)c2ccccc21 (centres undefined)	> 100 µM	> 100 µM
Cc1[nH]n(-c2ccccc2)c(=S)c1C(=O)c1ccccc1		61.6 µM
Cc1ccc2c(c1)NC(=O)C(N=[N+]=[N-])(c1ccccc1)C2=O (centres undefined)	88.3 µM	
CCC12C=CCN3CC[C@]4(C(=C(C(=O)OC)[C@@H]1Nc1ccn(C5OC(COC(C)=O)C(OC(C)=O)C5OC(C)=O)c(=O)n1)Nc1ccccc14)C32 (some centres undefined)	14.1 µM	
CCOc1ccc(N=Cc2cc(OC)c(OC)c(OC)c2)cc1	> 100 µM	
Cc1ccc(N2C(=O)/C(=c3\s/c(=C(/N)O)c(=N)n3-c3ccccc3)SC2=S)cc1	> 100 µM	
C(/COc1cccnc1)=N\NC1=NCCN1	> 100 µM	
CC1=CCC2(C#N)CCC1C2=O (centres undefined)		> 100 µM
CC(C)(C)C1CCC2c3c([nH]c4ccccc34)C3C(=O)N(c4ccc(Br)cc4)C(=O)C3C2C1 (centres undefined)	> 100 µM	
c1ccc2cc3n[se]nc3cc2c1		> 100 µM
CC(C)NC(C)Cc1ccccc1 (centres undefined)	> 100 µM	> 100 µM
